Source: paper PMC12157126, “Saturation kinetics and specificity of transporters for L-arginine and asymmetric dimethylarginine (ADMA) at the blood-brain and blood-CSF barriers” (PLOS One, 2025)
Values joined by “and” are separate entries in the source; they are usually repeats but may differ in a detail not shown here. Equal entries are not always repeated. Where two headings read alike, the source gives them in different places.

How the values were obtained:
[1] = tested on: blood-brain and blood-CSF barriers; conditions: male, BALB/c, mouse, in vivo, 10 min
Experimental: The in situ brain/choroid plexus perfusion method was performed as previously described and will only be briefly detailed here. […] At the end of the perfusion period a CSF sample was taken from the cisterna magna, the animal was decapitated, the brain removed and samples taken under a Leica S4E L2 stereomicroscope (Leica; Buckinghamshire, UK). […] The circumventricular organs (CVOs) including the choroid plexus, pituitary gland and pineal gland were also sampled. Brain samples were also taken for capillary depletion analysis.
It is specifically used in brain samples (including brain homogenate and brain supernatant) to measure the vascular space at all perfusion time points. At later time points, in particular, it may also represent the capillary endothelial cell volume and/ or diffusion across the brain capillary wall and into the brain interstitial fluid. In the pellet samples it will measure extracellular fluid and may also represent capillary endothelial cell volume. […] It may also represent any accumulation into the cells of the choroid plexus.

[2] = tested on: CAT-1; conditions: CAT-1 transports ADMA; cited from earlier work
[3] = tested on: NO production; design: method as in PMID 17082183; conditions: cited from earlier work
[4] = tested on: blood-brain and blood-CSF barriers; assay: Self-inhibition experiments: [3H]-ADMA uptake with 0.5-500 μM unlabelled ADMA and kinetic constants (Km, Vmax, Kd); type: in vivo, adult male BALB/c mice; design: [3H] ADMA, hippocampus / [3H] ADMA, thalamus: unit not given beside the values
[5] = CONTROL, 10 mins, 5ml/min, single mice

| Structure (SMILES) | distribution into capillary endothelial cells, times lower than into choroid plexus [1] | Km [2] | inhibition of NO production ([3]; normal ADMA concentrations within cells) | inhibition of NO production ([3]; plasma ADMA concentrations higher than normal) | decrease of [3H]-ADMA uptake ([4]; 500 μM unlabelled ADMA, frontal cortex) | effect on uptake of [3H]-ADMA (62.5 nM) ([4]; 0.5, 3.0, 10, 100 and 500μM un-labelled ADMA, all brain regions) | Difference ([3H] ADMA minus [14C] Sucrose), hippocampus [4, 5] | Difference ([3H] ADMA minus [14C] Sucrose), hypothalamus [4, 5] | Difference ([3H] ADMA minus [14C] Sucrose), occipital cortex [4, 5] | Difference ([3H] ADMA minus [14C] Sucrose), thalamus [4, 5] | [3H] ADMA, hippocampus [4, 5] | [3H] ADMA, hypothalamus [4, 5] | [3H] ADMA, occipital cortex [4, 5] | [3H] ADMA, supernatant [4, 5] | [3H] ADMA, thalamus [4, 5] |
| --- | --- | --- | --- | --- | --- | --- | --- | --- | --- | --- | --- | --- | --- | --- | --- |
| OC[C@H]1O[C@@](CO)(O[C@H]2O[C@H](CO)[C@@H](O)[C@H](O)[C@H]2O)[C@@H](O)[C@@H]1O [[^14C]-sucrose, sucrose] | 31.4 times |  |  |  |  |  |  |  |  |  |  |  |  |  |  |
| CN(C)C(N)=NCCC[C@H](N)C(=O)O.Cl.Cl [unlabelled ADMA, N^G,N^G-dimethylarginine dihydrochloride] |  | 183 ± 21 µM | 10% | 70% | 79.9% | significantly self-inhibited | 0.1991 and 0.2866 and 0.2044 and 0.2062 | 0.21 and 0.3614 and 0.2746 and 0.3021 | 0.1943 and 0.2753 and 0.1841 and 0.2419 and 0.2303 | 0.1695 and 0.2656 and 0.1763 and 0.2233 and 0.2154 | 0.2134 and 0.305 and 0.2049 and 0.2208 and 0.2239 | 0.2341 and 0.3969 and 0.298 and 0.3627 and 0.4134 | 0.2132 and 0.2962 and 0.2074 and 0.2625 and 0.2565 | 0.1192 and 0.1611 and 0.1028 and 0.139 and 0.1685 | 0.1804 and 0.2881 and 0.1916 and 0.2507 and 0.2348 |
